Reference: ChEMBL document CHEMBL1128139, “Synthesis of 2,3-dideoxy-3,4-dihydroxymethyl substituted pyrimidine nucleoside analogues” (Bioorg Med Chem Lett, 1995)
Active and inactive are the calls of the source. The calls are words filed in the database; no cut-off is given here.

What was measured:
[1] = system: Human immunodeficiency virus 1; experiment: Compound was tested for anti HIV-1 and cytopathic effects in XTT assay;IA means inactive; assay type: functional, organism-based
[2] = system: HIV-1 reverse transcriptase (Human immunodeficiency virus 1); experiment: Compound was tested for HIV-1 RT inhibition in in vitro assay;IA means inactive

Row | inhibition [2] | SMILES | Activity [1]
1 | inactive | Nc1ccn([C@@H]2C[C@H](CO)C(CO)(CO)O2)c(=O)n1 | inactive
2 | inactive | Cc1cn([C@@H]2C[C@H](CO)C(CO)(CO)O2)c(=O)[nH]c1=O | inactive
3 | inactive | Cc1cn([C@H]2C[C@H](CO)C(CO)(CO)O2)c(=O)[nH]c1=O | inactive
4 | inactive | Nc1ccn([C@H]2C[C@H](CO)C(CO)(CO)O2)c(=O)n1 | inactive
